Entries after “also recorded” stand apart in the source; their conditions may differ.
Legend:
A549 cells [1] = assay: Combination with paclitaxel, CellTiter-Glo viability, Fa and CalcuSyn CI; assay type: cell-based; conditions: 6 days;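 further: luminescent viability signal converted to fraction affected (Fa), and Fa with drug concentrations gives the CalcuSyn CI, where 0.9–1.1 is nearly additive and lower CI means stronger synergism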
Description: (§1) Cell viability was measured by the CellTiter-Glo Luminescence assay. Raw luminescent values were converted to fraction affected (Fa) with the following equation:
(§2) Synergy analysis was performed using the CalcuSyn software to determine CI scores based on the drug concentrations used and corresponding Fa values.

MIAPACA2T2 cells [2] = assay: Combination with carboplatin, CellTiter-Glo viability, Fa and CalcuSyn CI; assay type: cell-based; conditions: 6 days
Description: as §1, §2

MIAPACA2T2 cells [3] = assay: Combination with irinotecan, CellTiter-Glo viability, Fa and CalcuSyn CI; assay type: cell-based; conditions: 6 days
Description: as §1, §2

[4] = tested on: endogenous wild-type or MTAP-null cell lines; assay: 6-day viability in expanded panel of tumor cell lines; assay type: cell-based; conditions: endogenous MTAP-null vs wild-type cell lines; 6-day CellTiter-Glo
Description: FIG. 9. […] Top concentration of tested was 10 μM (1 uM for DLBCL lines) with a total of nine 1:3 serial dilution steps and DMSO-only control. […] (mean±SD, n=3).

MIAPACA2T2 cells [5] = assay: Combination with gemcitabine, CellTiter-Glo viability, Fa and CalcuSyn CI; assay type: cell-based; conditions: 6 days
Description: as §1, §2

PSN1 cells = assay: Combination with irinotecan, CellTiter-Glo viability, Fa and CalcuSyn CI; assay type: cell-based; conditions: 6 days
Description: as §1, §2

H292 cells [6] = assay: Combination with pemetrexed, CellTiter-Glo viability, Fa and CalcuSyn CI; conditions: 6 days;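 further: fa derived from CellTiter-Glo luminescence signal, CI calculated in CalcuSyn from doses and Fa, with 0.9–1.1 nearly additive and smaller values indicating synergism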
Description: as §1, §2

A549 cells [7] = assay: as above; conditions: 6 days
Description: as §1, §2

H292 cells [8] = assay: Combination with paclitaxel, CellTiter-Glo viability, Fa and CalcuSyn CI; assay type: cell-based; conditions: 6 days;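 further: fa derived from raw luminescence, CI computed in CalcuSyn from drug concentrations and Fa, with CI under 0.9 indicating synergism and 0.9 to 1.1 nearly additive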
Description: as §1, §2

H292 NSCLC xenografts = assay: H292 NSCLC xenografts, combination with chemotherapy; assay type: in vivo, mice
[9] = Compound B 0.1535 μM fixed + Paclitaxel 0.0005 μM
[10] = Compound B 0.1535 μM fixed + Paclitaxel 0.0007 μM
[11] = Compound B 0.1535 μM fixed + Paclitaxel 0.0009 μM
[12] = Compound B 0.1535 μM fixed + Paclitaxel 0.0011 μM
[13] = Compound B 0.1535 μM fixed + Paclitaxel 0.0015 μM
[14] = Compound B 0.1535 μM fixed + Paclitaxel 0.0019 μM
[15] = Compound B 0.1535 μM fixed + Paclitaxel 0.0025 μM
[16] = Compound B 0.2916 μM fixed + Gemcitabine 0.002045 μM
[17] = Compound B 0.1535 μM fixed + Pemetrexed 0.131687 μM
[18] = Compound B 0.1535 μM fixed + Pemetrexed 0.197531 μM
[19] = Compound B 0.1535 μM fixed + Pemetrexed 0.296296 μM
[20] = Compound B 0.1535 μM fixed + Pemetrexed 0.444444 μM
[21] = Compound B 0.1535 μM fixed + Pemetrexed 0.666667 μM
[22] = Compound B 0.1535 μM fixed + Pemetrexed 1 μM
[23] = Compound B 0.1535 μM fixed + Pemetrexed 1.5 μM
[24] = Compound B 0.2916 μM fixed + Paclitaxel 0.0005 μM
[25] = Compound B 0.2916 μM fixed + Paclitaxel 0.0007 μM
[26] = Compound B 0.2916 μM fixed + Paclitaxel 0.0009 μM
[27] = Compound B 0.2916 μM fixed + Paclitaxel 0.0011 μM
[28] = Compound B 0.2916 μM fixed + Paclitaxel 0.0015 μM
[29] = Compound B 0.2916 μM fixed + Paclitaxel 0.0019 μM
[30] = Compound B 0.2916 μM fixed + Paclitaxel 0.0025 μM

Cc1cc2cc(C(=O)N(Cc3ccc(C(F)(F)F)cn3)[C@@H](C)c3ncccn3)ccc2nc1N [Compound B]
Combination Fa (A549 cells [1]; [9]): 0.7030 | Computed CI value (A549 cells [1]; [9]): 0.545 | Combination Fa (A549 cells [1]; [10]): 0.7177 | Computed CI value (A549 cells [1]; [10]): 0.64 | Combination Fa (A549 cells [1]; [11]): 0.7578 | Computed CI value (A549 cells [1]; [11]): 0.716 | Combination Fa (A549 cells [1]; [12]): 0.8365 | Computed CI value (A549 cells [1]; [12]): 0.745 | Combination Fa (A549 cells [1]; [13]): 0.9023 | Computed CI value (A549 cells [1]; [13]): 0.786 | Combination Fa (A549 cells [1]; [14]): 0.9387 | Computed CI value (A549 cells [1]; [14]): 0.867 | Combination Fa (A549 cells [1]; [15]): 0.9692 | Computed CI value (A549 cells [1]; [15]): 0.898 | Combination Fa (MIAPACA2T2 cells [2]; Compound B 0.4374 μM fixed + Carboplatin 2.47793 μM): 0.653 | Computed CI value (MIAPACA2T2 cells [2]; Compound B 0.4374 μM fixed + Carboplatin 11.1111 μM): 0.269 | Computed CI value (MIAPACA2T2 cells [3]; Compound B 0.4374 μM fixed + Irinotecan 0.256 μM): 0.602 | Computed CI value (MIAPACA2T2 cells [3]; Compound B 0.4374 μM fixed + Irinotecan […]): 0.647 | proliferation / viability in expanded panel of tumor cell lines [4]: inhibited the proliferation of most MTAP-null cells, with minimal effects on MTAP-WT cells; also recorded: preferential activity in endogenous MTAP-null tumor cell lines; also recorded: preferentially inhibits cell viability in endogenous MTAP-null vs. wildtype | Combination Fa (MIAPACA2T2 cells [5]; Compound B 0.2916 μM fixed + Gemcitabine 0.001461 μM): 0.567 | Combination Fa (MIAPACA2T2 cells [5]; [16]): 0.514 | Computed CI value (MIAPACA2T2 cells [5]; [16]): 1.006 | Computed CI value (MIAPACA2T2 cells [5]; Compound B 0.2916 μM fixed + Gemcitabine 0.002863 μM): 0.823 | Computed CI value (MIAPACA2T2 cells [5]; Compound B 0.2916 μM fixed + Gemcitabine 0.004009 μM): 0.866 | Computed CI value (MIAPACA2T2 cells [5]; Compound B 0.2916 μM fixed + Gemcitabine 0.005612 μM): 0.843 | Computed CI value (MIAPACA2T2 cells [5]; Compound B 0.2916 μM fixed + Gemcitabine 0.007857 μM): 0.895 | Computed CI value (MIAPACA2T2 cells [5]; Compound B 0.2916 μM fixed + Gemcitabine 0.011 μM): 1.007 | Computed CI value (PSN1 cells; Compound B 0.0202 μM fixed + Irinotecan 0.088889 μM): 0.806 | Computed CI value (PSN1 cells; Compound B 0.0202 μM fixed + Irinotecan 0.133333 μM): 0.8 | Computed CI value (PSN1 cells; Compound B 0.0202 μM fixed + Irinotecan 0.2 μM): 0.8 | Combination Fa (H292 cells [6]; [17]): 0.6769 | Computed CI value (H292 cells [6]; [17]): 0.73 | Combination Fa (H292 cells [6]; [18]): 0.7032 | Computed CI value (H292 cells [6]; [18]): 0.587 | Combination Fa (H292 cells [6]; [19]): 0.7484 | Computed CI value (H292 cells [6]; [19]): 0.401 | Combination Fa (H292 cells [6]; [20]): 0.7887 | Computed CI value (H292 cells [6]; [20]): 0.309 | Combination Fa (H292 cells [6]; [21]): 0.8438 | Computed CI value (H292 cells [6]; [21]): 0.215 | Combination Fa (H292 cells [6]; [22]): 0.8703 | Computed CI value (H292 cells [6]; [22]): 0.216 | Combination Fa (H292 cells [6]; [23]): 0.8508 | Computed CI value (H292 cells [6]; [23]): 0.385 | Combination Fa (A549 cells [7]; Compound B 0.1535 μM fixed + Pemetrexed 0.087792 μM): 0.6401 | Combination Fa (A549 cells [7]; [17]): 0.6629 | Computed CI value (A549 cells [7]; [17]): 0.936 | Combination Fa (A549 cells [7]; [18]): 0.6484 | Computed CI value (A549 cells [7]; [18]): 1.172 | Combination Fa (A549 cells [7]; [19]): 0.6761 | Computed CI value (A549 cells [7]; [19]): 1.033 | Combination Fa (A549 cells [7]; [20]): 0.7384 | Computed CI value (A549 cells [7]; [20]): 0.639 | Combination Fa (A549 cells [7]; [21]): 0.8303 | Computed CI value (A549 cells [7]; [21]): 0.235 | Combination Fa (A549 cells [7]; [22]): 0.8717 | Computed CI value (A549 cells [7]; [22]): 0.139 | Combination Fa (H292 cells [8]; [24]): 0.7127 | Computed CI value (H292 cells [8]; [24]): 0.84 | Combination Fa (H292 cells [8]; [25]): 0.7796 | Computed CI value (H292 cells [8]; [25]): 0.758 | Combination Fa (H292 cells [8]; [26]): 0.8302 | Computed CI value (H292 cells [8]; [26]): 0.757 | Combination Fa (H292 cells [8]; [27]): 0.8932 | Computed CI value (H292 cells [8]; [27]): 0.724 | Combination Fa (H292 cells [8]; [28]): 0.9425 | Computed CI value (H292 cells [8]; [28]): 0.697 | Combination Fa (H292 cells [8]; [29]): 0.9568 | Computed CI value (H292 cells [8]; [29]): 0.8 | Combination Fa (H292 cells [8]; [30]): 0.9674 | Computed CI value (H292 cells [8]; [30]): 0.928 | anti-tumor activity of combination with paclitaxel (H292 NSCLC xenografts; 100 mg/kg orally once daily + paclitaxel 20 mg/kg IP): significant anti-tumor activity versus either single agent alone; also recorded: significant anti-tumor activity versus paclitaxel or carboplatin alone | anti-tumor activity of combination with carboplatin (H292 NSCLC xenografts; orally once daily + carboplatin 60 mg/kg IP 1×/week): significant anti-tumor activity versus paclitaxel or carboplatin alone

Reference: patent publication US20250228861A1, “Cancer Treatments Using MTA-Cooperative PRMT5 Inhibitors” (AMGEN INC., priority 2022, published 2025)
